This passage reports residual activity results from ChEMBL document CHEMBL4507319 (2021).

What all share (settings): Compound concentration 1000.0 nM
Test [1] addresses Serine/threonine-protein kinase OSR1 (Homo sapiens) (UniProt O95747).
For test [2], the target named is Serine/threonine-protein kinase VRK2 (Homo sapiens) (UniProt Q86Y07).
For test [3], the system named is Receptor-type tyrosine-protein kinase FLT3 (Homo sapiens), P36888 [UNDEFINED MUTATION].
The target in test [4] is Cyclin-dependent kinase 16 (Homo sapiens) (UniProt Q00536).
Test [5] deals with Aurora kinase B (Homo sapiens) (UniProt Q96GD4).
In test [6] the target is T1, Tyrosine-protein kinase Tec (Homo sapiens) (UniProt P42680).
T1 sequence (whole entry): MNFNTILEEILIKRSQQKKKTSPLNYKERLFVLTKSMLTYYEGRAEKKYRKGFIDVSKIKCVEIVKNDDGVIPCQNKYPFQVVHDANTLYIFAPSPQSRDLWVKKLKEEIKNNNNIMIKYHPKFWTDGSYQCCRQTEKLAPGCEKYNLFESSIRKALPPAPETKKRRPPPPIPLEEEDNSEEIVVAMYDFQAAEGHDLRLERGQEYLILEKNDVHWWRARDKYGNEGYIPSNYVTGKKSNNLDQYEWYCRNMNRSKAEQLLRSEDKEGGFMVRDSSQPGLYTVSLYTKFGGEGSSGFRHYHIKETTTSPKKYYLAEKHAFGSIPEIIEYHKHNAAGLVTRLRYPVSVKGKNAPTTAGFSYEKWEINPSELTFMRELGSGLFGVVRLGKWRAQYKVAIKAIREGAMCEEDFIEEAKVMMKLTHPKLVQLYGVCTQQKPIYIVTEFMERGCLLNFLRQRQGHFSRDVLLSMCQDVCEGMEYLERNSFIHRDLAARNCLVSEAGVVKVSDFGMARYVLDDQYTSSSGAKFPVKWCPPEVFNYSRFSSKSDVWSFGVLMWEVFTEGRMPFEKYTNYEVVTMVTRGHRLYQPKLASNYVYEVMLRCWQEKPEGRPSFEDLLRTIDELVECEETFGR

Test [7] has as its target T2, Serine/threonine-protein kinase BRSK2 (Homo sapiens) (UniProt Q8IWQ3).
T2 sequence (whole entry): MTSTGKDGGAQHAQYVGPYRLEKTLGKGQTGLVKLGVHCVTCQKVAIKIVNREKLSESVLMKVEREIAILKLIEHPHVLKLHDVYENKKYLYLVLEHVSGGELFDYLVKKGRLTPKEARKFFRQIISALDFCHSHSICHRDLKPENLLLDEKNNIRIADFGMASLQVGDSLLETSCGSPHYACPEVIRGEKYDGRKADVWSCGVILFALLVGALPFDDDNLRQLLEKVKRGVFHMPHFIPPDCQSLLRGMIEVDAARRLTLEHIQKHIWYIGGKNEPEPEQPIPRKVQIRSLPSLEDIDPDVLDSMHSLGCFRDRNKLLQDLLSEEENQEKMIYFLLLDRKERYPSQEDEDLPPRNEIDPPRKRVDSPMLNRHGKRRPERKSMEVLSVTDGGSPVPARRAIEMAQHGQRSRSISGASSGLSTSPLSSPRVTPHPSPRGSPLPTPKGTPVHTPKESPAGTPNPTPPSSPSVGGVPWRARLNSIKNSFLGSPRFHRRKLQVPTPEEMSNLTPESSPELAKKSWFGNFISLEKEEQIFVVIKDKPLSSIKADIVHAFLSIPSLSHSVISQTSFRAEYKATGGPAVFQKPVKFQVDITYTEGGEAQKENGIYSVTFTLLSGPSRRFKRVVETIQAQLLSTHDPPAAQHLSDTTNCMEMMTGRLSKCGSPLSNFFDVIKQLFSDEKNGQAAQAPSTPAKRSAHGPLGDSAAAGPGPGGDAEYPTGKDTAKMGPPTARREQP

Test [8] has as its target Bone morphogenetic protein receptor type-1A (Homo sapiens) (UniProt P36894).
Test [9] deals with Activin receptor type-2A (Homo sapiens) (UniProt P27037).
Activin receptor type-2A (Homo sapiens), sequence (P27037 whole entry): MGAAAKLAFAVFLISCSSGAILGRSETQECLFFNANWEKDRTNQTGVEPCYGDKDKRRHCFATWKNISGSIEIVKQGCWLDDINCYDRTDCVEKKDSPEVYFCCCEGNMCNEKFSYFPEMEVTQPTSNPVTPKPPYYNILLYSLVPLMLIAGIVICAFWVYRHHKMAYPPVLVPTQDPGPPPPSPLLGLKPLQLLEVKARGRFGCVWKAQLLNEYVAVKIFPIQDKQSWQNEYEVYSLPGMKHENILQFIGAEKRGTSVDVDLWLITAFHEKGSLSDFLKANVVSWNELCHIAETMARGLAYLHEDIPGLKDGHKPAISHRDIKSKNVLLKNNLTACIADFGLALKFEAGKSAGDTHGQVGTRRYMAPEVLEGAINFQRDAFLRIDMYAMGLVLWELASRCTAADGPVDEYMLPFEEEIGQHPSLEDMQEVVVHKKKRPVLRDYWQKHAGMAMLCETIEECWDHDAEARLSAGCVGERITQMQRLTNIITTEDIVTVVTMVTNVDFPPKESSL
The target in test [10] is Calcium-dependent protein kinase 1 (Plasmodium falciparum) (UniProt P62344).
Test [11] relates to Phosphatidylinositol 4,5-bisphosphate 3-kinase catalytic subunit alpha isoform (Homo sapiens), P42336 [H1047Y].
The target in test [12] is Serine/threonine-protein kinase SIK3 (Homo sapiens) (UniProt Q9Y2K2).
Serine/threonine-protein kinase SIK3 (Homo sapiens), sequence (Q9Y2K2 whole entry, looked up, canonical isoform): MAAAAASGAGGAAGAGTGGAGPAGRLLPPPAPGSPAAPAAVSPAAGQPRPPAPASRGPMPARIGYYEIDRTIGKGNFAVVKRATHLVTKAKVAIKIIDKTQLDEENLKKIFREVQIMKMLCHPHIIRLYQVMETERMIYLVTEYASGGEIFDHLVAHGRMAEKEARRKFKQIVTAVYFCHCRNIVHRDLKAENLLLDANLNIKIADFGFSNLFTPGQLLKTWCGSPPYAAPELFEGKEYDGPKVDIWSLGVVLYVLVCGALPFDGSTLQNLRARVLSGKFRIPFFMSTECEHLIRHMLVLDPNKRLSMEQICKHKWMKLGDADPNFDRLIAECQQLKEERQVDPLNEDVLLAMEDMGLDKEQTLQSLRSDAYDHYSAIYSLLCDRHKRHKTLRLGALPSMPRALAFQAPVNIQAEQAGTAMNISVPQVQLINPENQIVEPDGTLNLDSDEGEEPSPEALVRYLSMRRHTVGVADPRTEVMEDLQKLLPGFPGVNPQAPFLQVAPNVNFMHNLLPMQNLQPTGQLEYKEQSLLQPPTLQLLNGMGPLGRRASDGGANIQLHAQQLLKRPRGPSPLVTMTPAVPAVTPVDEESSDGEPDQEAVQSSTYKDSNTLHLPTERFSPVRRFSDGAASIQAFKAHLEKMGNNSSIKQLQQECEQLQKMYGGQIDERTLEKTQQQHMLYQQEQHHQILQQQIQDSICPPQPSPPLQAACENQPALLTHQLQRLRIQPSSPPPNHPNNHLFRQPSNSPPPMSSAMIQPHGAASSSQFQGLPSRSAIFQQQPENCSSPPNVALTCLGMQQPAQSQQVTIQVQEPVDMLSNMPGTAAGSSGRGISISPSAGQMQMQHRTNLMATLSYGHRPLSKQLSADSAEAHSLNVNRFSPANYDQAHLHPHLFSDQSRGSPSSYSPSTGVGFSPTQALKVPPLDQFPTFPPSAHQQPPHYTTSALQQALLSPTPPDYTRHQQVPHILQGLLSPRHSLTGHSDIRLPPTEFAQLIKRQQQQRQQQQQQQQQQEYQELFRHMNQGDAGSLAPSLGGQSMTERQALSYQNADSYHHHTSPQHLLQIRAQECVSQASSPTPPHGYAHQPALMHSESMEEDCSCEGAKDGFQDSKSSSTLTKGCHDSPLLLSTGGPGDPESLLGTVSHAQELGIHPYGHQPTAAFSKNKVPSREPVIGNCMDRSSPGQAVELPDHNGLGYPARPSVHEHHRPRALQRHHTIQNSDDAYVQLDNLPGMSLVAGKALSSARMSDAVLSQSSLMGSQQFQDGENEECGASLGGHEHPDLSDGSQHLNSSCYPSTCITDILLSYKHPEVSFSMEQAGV
Test [13] concerns the target Casein kinase I isoform gamma-1 (Homo sapiens) (UniProt Q9HCP0).
For test [14], the target named is Casein kinase I isoform epsilon (Homo sapiens) (UniProt P49674).
The target in test [15] is Macrophage-stimulating protein receptor (Homo sapiens) (UniProt Q04912).
In test [16] the test system is Tyrosine-protein kinase ABL1 (Homo sapiens), P00519 [E255K].
Tyrosine-protein kinase ABL1 (Homo sapiens), P00519 [E255K], sequence (P00519 whole entry E255K): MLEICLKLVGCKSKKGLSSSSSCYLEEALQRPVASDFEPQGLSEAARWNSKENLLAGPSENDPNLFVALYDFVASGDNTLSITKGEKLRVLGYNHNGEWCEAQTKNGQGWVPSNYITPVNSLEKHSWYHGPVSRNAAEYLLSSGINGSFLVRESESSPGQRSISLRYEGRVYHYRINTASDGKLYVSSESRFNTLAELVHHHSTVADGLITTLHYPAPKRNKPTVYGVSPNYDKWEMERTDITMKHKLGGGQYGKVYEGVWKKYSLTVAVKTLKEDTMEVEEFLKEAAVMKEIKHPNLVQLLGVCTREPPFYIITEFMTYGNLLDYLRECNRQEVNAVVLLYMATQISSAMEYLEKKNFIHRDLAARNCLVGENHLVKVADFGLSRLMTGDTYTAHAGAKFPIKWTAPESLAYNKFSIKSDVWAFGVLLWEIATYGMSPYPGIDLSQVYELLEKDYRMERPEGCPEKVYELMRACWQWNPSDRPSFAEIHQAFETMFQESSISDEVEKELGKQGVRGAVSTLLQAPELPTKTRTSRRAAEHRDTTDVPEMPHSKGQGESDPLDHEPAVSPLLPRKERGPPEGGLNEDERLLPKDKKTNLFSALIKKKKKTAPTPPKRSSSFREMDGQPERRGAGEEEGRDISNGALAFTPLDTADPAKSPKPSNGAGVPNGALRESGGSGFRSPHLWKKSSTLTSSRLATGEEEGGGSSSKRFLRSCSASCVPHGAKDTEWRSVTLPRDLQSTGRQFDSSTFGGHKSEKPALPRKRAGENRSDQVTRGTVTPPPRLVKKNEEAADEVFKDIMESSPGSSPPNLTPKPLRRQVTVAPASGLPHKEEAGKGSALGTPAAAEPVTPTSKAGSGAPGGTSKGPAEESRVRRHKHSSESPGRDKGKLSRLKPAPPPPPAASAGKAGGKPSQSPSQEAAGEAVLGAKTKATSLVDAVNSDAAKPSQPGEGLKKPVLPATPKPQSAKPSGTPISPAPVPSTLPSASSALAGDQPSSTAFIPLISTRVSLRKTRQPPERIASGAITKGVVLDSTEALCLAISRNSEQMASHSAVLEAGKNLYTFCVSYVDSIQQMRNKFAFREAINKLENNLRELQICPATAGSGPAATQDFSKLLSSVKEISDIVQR
Test [17] deals with T3, Serine/threonine-protein kinase MAK (Homo sapiens) (UniProt P20794).
T3 sequence (whole entry): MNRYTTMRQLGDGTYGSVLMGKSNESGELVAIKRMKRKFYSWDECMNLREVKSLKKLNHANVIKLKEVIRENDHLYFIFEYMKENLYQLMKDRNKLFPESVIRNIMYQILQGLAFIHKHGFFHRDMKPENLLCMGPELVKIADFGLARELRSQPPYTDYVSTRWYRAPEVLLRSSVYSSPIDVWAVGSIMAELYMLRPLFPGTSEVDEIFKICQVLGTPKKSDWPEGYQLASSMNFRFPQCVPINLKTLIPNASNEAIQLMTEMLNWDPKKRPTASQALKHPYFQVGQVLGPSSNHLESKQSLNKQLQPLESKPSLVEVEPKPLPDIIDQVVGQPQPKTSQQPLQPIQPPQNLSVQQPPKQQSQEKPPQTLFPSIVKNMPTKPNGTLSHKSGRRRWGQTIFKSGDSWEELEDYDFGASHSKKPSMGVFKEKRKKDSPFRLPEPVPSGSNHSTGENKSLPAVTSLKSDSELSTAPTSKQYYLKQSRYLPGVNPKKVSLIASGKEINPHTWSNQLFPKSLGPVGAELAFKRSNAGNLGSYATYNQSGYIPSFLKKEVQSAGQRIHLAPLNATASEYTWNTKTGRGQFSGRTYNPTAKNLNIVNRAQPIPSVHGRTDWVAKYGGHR

Serine/threonine-protein kinase VRK2 (Homo sapiens), sequence (Q86Y07 whole entry): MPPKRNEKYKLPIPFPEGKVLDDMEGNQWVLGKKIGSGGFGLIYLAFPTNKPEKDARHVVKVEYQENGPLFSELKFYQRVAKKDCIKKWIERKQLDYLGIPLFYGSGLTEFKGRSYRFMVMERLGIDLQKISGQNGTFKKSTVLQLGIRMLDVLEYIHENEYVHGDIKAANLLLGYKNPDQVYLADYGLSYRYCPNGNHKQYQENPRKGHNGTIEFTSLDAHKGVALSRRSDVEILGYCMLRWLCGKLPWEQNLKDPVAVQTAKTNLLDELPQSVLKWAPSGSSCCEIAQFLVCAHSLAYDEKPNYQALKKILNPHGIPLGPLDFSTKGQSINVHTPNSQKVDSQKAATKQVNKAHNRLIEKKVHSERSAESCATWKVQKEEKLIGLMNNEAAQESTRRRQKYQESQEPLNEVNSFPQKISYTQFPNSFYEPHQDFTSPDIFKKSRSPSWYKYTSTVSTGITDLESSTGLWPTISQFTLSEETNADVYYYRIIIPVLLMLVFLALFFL
Receptor-type tyrosine-protein kinase FLT3 (Homo sapiens), P36888 [UNDEFINED MUTATION], sequence (P36888 whole entry, looked up, change not shown): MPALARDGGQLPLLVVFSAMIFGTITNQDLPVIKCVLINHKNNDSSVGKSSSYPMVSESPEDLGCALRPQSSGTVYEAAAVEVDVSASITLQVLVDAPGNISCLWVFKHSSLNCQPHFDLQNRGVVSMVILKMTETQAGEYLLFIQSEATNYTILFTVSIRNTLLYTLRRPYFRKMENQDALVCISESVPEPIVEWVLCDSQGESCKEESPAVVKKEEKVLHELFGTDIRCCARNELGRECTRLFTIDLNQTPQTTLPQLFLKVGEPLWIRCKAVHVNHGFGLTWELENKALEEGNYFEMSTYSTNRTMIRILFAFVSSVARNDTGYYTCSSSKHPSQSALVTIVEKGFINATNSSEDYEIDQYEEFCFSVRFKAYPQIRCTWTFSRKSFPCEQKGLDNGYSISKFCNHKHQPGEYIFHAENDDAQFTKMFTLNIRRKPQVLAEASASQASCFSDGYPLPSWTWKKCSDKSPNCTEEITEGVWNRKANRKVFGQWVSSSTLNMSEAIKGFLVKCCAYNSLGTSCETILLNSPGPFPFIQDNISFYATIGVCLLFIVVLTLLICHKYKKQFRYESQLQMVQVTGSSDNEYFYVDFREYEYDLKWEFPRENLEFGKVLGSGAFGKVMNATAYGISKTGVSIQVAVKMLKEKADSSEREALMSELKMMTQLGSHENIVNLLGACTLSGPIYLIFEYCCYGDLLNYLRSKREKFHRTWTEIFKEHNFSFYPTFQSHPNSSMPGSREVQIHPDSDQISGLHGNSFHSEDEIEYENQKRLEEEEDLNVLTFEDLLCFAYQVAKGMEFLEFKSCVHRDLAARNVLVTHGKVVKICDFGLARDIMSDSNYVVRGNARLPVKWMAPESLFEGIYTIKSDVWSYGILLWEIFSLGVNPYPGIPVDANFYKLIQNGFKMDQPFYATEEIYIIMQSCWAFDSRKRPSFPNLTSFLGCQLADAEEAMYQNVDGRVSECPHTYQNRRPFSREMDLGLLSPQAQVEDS
Bone morphogenetic protein receptor type-1A (Homo sapiens), sequence (P36894 whole entry): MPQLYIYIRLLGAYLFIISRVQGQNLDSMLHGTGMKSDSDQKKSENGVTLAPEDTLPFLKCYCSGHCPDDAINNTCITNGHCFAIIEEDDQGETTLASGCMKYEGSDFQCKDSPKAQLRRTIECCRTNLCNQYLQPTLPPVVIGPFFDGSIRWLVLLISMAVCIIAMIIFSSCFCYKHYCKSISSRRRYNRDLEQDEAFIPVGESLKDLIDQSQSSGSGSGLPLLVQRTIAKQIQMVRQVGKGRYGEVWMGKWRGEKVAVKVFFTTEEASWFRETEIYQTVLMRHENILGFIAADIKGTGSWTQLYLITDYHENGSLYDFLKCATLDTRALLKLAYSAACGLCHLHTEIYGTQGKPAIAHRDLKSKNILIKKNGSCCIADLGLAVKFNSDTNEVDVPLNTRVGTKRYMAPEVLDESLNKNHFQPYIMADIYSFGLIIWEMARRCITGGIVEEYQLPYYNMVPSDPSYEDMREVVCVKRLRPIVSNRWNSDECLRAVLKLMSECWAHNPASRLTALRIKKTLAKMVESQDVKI

For the compound `CCc1ccccc1C(=O)Nc1n[nH]c2c(C)c(F)c(C3C(C#N)=C(C)N(C)C(C)=C3C#N)cc12` [BAY-3827], the residual activity is 100% in test [1]; 100% in [2]; 12% in test [3]; 100% in test [4]; 88% in [5]; 91% in test [6]. Further, the residual activity in [7] was 36%; in [8] it was 87%; in [9], 100%; in [10], 100%; in [11], 77%; in [12], 74%. Further, the residual activity is 95% in test [13]; 100% in test [14]; 100% in [15]; 88% in test [16]; 100% in test [17].

`CC1=C(C#N)C(c2ccc3c(c2)c(NC(=O)c2ccccc2C)nn3C)C(C#N)=C(C)N1` [BAY-974]: the residual activity in test [1] is 83%; in test [2], 72%; in test [3] it was 76%; in [4], 93%; in test [5] it was 66%; in [6], 100%. Further, the residual activity in test [7] was 92%; in test [8], 100%; in test [9], 97%; in [10], 98%; in test [11] it was 91%; in test [12], 81%. The residual activity in test [13] is 100%; in test [14] it was 100%; in test [15] it was 95%; in test [16] it was 63%; in [17] it was 100%.
